{"source": "patent US10765638B2", "about": "“Particle formulation with polycation complex” (Yale University, priority 2017, dated 2020)", "key": {"[1]": {"test_system": "EGFR, ErbB2, and ErbB3", "assay": "Western blot of ErbB family RTK glycosylation, phosphorylation and protein levels in glioma cells", "assay_type": "cell-based", "experimental": "In this study, the D54, SKMG3, U251, T98G and 42-MG glioma cell lines were used. The source of D54, SKMG3 and U251 cells has been described previously (Contessa at al., Clin Cancer Res., 16:3205-14 (2010), Lopez et al., Int J Radiat Oncol Biol Phys., 69:214-20 (2007)). The 42-MG and T98G cells were provided by Todd Waldman (Georgetown University) and Dr. Ranjit Bindra (Yale University), respectively. The cells were cultured in DMEM/F12 (D54 and T98G), DMEM (42-MG and U251) or RPMI 1640 (SKMG3)+10% FBS supplemented with penicillin and streptomycin (Gibco, Life Technologies, Grand Island, N.Y., US) in a humidified incubator with 5% CO2, and they were kept in culture no more than 6 months after resuscitation from the original stocks. […] Mycoplasma cell culture contamination was routinely checked and ruled out using a biochemical test (MycoAlert Mycoplasma Detection Kit from Lonza, Rockland, Me. USA). Tunicamycin was purchased from Calbiochem/EMD-millipore (Burlington, Mass., USA). Cetuximab and Erlotinib were purchased at Selleck Chemicals LLC (Houston, Tex., USA). Luciferin was supplied by Promega (Madison, Wis. USA). For in vitro experiments, radiation (XRT) was administered at room temperature using a Precision X-ray 320-kV orthovoltage unit at a dose rate of 2 Gy/45 seconds (PXI X-Ray Systems) with 2 mm aluminum filter. For in vivo studies, radiation was administered at room temperature using a Precision X-ray 250-kV orthovoltage unit at a dose rate of 6.42 Gy/min (PXI X-Ray Systems) with 2 mm aluminum filter. Quality Assurance for both irradiators was performed monthly using a P.T.W. 0.3 cm^3 Ionization Chamber calibrated to NIST standards and quarterly dosimetry using thermoluminescent dosimeter (TLD)-based or ferrous sulfate-based dosimeters."}, "[2]": {"test_system": "D54 cells", "assay": "Cell cycle distribution by flow cytometry", "assay_type": "cell-based", "experimental": "(§1) Cell cycle distribution was determined following treatment with vehicle, radiation and/or 10 uM NGI-1. Cells were trypsinized and centrifuged, washed once with ice-cold PBS, fixed with ice-cold 70% ethanol and stored overnight at −20° C. After washing twice with PBS, they were incubated for 30 minutes at room temperature in 200 μL of Guava Cell Cycle Reagent (Guava Technologies). Cytofluorometric acquisitions were performed on a LSRII cytometer (BD Biosciences). First-line analysis was performed with FlowJo software, upon gating of the events characterized by normal forward and side scatter parameters and discrimination of doublets in a FSC-A vs. FSC-H bivariate plot. Approximately 50,000 cells were analyzed per experiment."}, "[3]": {"test_system": "T98G cells", "assay": "Cell cycle distribution by flow cytometry", "assay_type": "cell-based", "experimental": "as §1"}, "[4]": {"test_system": "U251 cells", "assay": "Cell cycle distribution by flow cytometry", "assay_type": "cell-based", "experimental": "as §1"}, "[5]": {"test_system": "SKMG3 cells", "assay": "Cell cycle distribution by flow cytometry", "assay_type": "cell-based, human", "experimental": "as §1"}, "[6]": {"test_system": "SKMG3 cells", "assay": "Phospho-γH2AX foci formation after radiation", "assay_type": "cell-based, human", "conditions": "2 hours after 4 Gy, 10 μM NGI-1", "experimental": "(§2) To determine histone H2AX phosphorylation (γH2AX), cells were cultured on glass cover slips and pre-treated with either vehicle or NGI-1 for 48 hours followed by radiation treatment. Samples were fixed with 4% neutral-buffered formaldehyde, washed (0.1% triton in PBS for 30 minutes) and incubated for 1 hour with protein-blocking solution (PBS containing 10% normal goat-horse serum; Sigma-Aldrich, Saint Louis, Mich., US). Next, the slides were incubated with primary anti-phospho-histone γH2AX S139 (1:500, Millipore-Upstate, Billerica, Mass., US) followed by incubation with secondary antibody Alexa Fluor 555-conjugated goat anti-mouse IgG (1:750, Molecular probes/Invitrogen, Carlsbad, Calif., US), for 1 hour at room temperature. Nuclei were stained using DAPI containing vectashield mounting solution (Vector Labs). Confocal cellular images were captured with an inverted Zeiss LSM 510 Pascal laser confocal microscope (C. Zeiss, Jenna, Germany), using a 63/1.4 plan-apochromat objective. Five randomly selected fields s per slide were analyzed. Cells were counted using the ImageJ program, public domain Java image processing software."}, "[7]": {"test_system": "SKMG3-CD8-EGFR cells", "assay": "Cell cycle distribution by flow cytometry", "assay_type": "cell-based, human", "conditions": "10 μM NGI-1, 4 Gy", "experimental": "as §1\nThe CD8 cDNA was a gift from Paula Kavathas (Yale University). The CD8-EGFR was constructed according to a strategy that generated a constitutively active IGF-1R (24). The extracellular domain of CD8 was PCR amplified with a 5′ XbaI and 3′ SalI restriction site and cloned in-frame with the intracellular kinase domain of EGFR using the pDCB5-EGFR plasmid. SKMG3-CD8-EGFR cells were generated by Lipofectamine (Life Technologies) transfection of the plasmid followed by selection with 500 μg/ml G418. Expression of CD8-EGFR was validated by western blot analysis of the wild type and CD8-EGFR."}, "[8]": {"test_system": "SKMG3-CD8-EGFR cells", "assay": "Phospho-γH2AX foci formation", "assay_type": "cell-based, human", "experimental": "as §2\nThe CD8 cDNA was a gift from Paula Kavathas (Yale University). The CD8-EGFR was constructed according to a strategy that generated a constitutively active IGF-1R (24). […]"}, "[9]": {"test_system": "H1975-OR cells", "assay": "Cell cycle distribution by flow cytometry", "assay_type": "cell-based", "conditions": "NGI-1 for 24 h, printed 45% vs 75%, higher value taken as NGI-1", "experimental": "For the assessment of cell cycle distribution, 1×10^6 cells were collected, washed once with ice-cold PBS and fixed in ice-cold 70% ethanol overnight at −20° C. Thereafter, cells were washed twice with PBS and incubated for 30 min at room temperature in 200 μL of Guava Cell Cycle Reagent (Guava Technologies). Cytofluorometric acquisitions were performed on a LSRII cytometer (BD Biosciences). First-line analysis was performed with Flow Jo software, upon gating of the events characterized by normal forward and side scatter parameters and discrimination of doublets in a FSC-A vs. FSC-H bivariate plot. Approximately 30,000 cells were analyzed per experiment, and the mean value was obtained from 3 independent assays."}, "[10]": {"test_system": "HCC827-GR cells", "assay": "Apoptosis by Annexin V flow cytometry", "assay_type": "cell-based", "conditions": "NGI-1 treatment alone", "experimental": "First-line analysis was performed with Flow Jo software. Approximately 50,000 cells were analyzed per experiment, and the mean value was obtained from 3 independent assays."}, "[11]": {"test_system": "FGFR1 dependent H1580", "conditions": "Lopez-Sambrooks et al., Nat Chem Biol. 2016; cited from earlier work"}}}
{"smiles": "Cc1cnc(NC(=O)c2cc(S(=O)(=O)N(C)C)ccc2N2CCCC2)s1", "note": "[NGI-1, 5-(dimethylsulfamoyl)-N-(5-methyl-1,3-thiazol-2-yl)-2-(pyrrolidin-1-yl)benzamide]", "values": [{"measurement": "ErbB3 protein levels", "setting": "[1]; D54 and SKMG3 cell lines", "value": "reduction of ErbB3 protein levels"}, {"measurement": "ErbB2 protein levels", "setting": "[1]; SKMG3", "value": "reduction in ErbB2 protein levels"}, {"measurement": "EGFR protein levels (as cause of reduced EGFR phosphorylation)", "setting": "[1]; SKMG3 and D54 cell lines", "value": "not caused by decreases in EGFR protein levels"}, {"measurement": "glycosylation of EGFR, ErbB2, and ErbB3 (protein gel mobility on western blot)", "setting": "[1]; SKMG3 and D54 cell lines", "value": "reduced glycosylation"}, {"measurement": "phosphorylation of EGFR, ErbB2, and ErbB3", "setting": "[1]; SKMG3 and D54 cell lines", "value": "reduced"}, {"measurement": "cells in G1 (G1 arrest)", "setting": "[2]; 48 hours of 10 uM NGI-1, control 75%", "value": 83, "unit": "%"}, {"measurement": "cells in G1 six hours after 4 Gy", "setting": "[2]; NGI-1 + 4 Gy, 66% without NGI-1", "value": 77, "unit": "%"}, {"measurement": "G1 arrest", "setting": "[3]; 48 hours of NGI-1", "value": "no arrest"}, {"measurement": "G1 arrest six hours after 4 Gy", "setting": "[3]; NGI-1 + 4 Gy", "value": "not for either the T98G or U251 cells"}, {"measurement": "cells in G1 (G1 arrest)", "setting": "[4]; 48 hours of 10 uM NGI-1, printed 64% vs. 72%", "value": 64, "unit": "%"}, {"measurement": "G1 arrest six hours after 4 Gy", "setting": "[4]; NGI-1 + 4 Gy", "value": "not for either the T98G or U251 cells"}, {"measurement": "cells in G1 (G1 arrest)", "setting": "[5]; SKMG3, 48 hours of 10 uM NGI-1, control 69%", "value": 78, "unit": "%"}, {"measurement": "cells in G1 six hours after 4 Gy", "setting": "[5]; SKMG-3, NGI-1 + 4 Gy, 56% without NGI-1", "value": 72, "unit": "%"}, {"measurement": "increase of phospho-γH2AX foci formation compared to radiation alone (factor)", "setting": "[6]", "value": 1.2}, {"measurement": "G1 cell cycle arrest caused by NGI-1, alone and after exposure to radiation", "setting": "[7]", "value": "eliminated the G1 cell cycle arrest"}, {"measurement": "phospho-γH2AX foci formation", "setting": "[8]", "value": "no effect"}, {"measurement": "cells in G1 (G1 arrest)", "setting": "[9]", "value": 75, "unit": "%"}, {"measurement": "induction of apoptosis", "setting": "[10]", "value": "not sufficient to induce apoptosis"}, {"measurement": "sensitivity to OST inhibition with NGI-1", "setting": "[11]", "value": "sensitive"}]}
